Laboratory results as given in patent US20050143450A1, “Alkyl PCDF as a treatment for prostate cancer” (priority 2002, published 2005).
Like-named read-outs stand apart in the source and are kept apart here.

Columns and labels:
[1] = system: androgen-responsive probasin gene promoter (pPB); type: cell-based, human
Experimental: ZR-75 human breast cancer and LNCaP human prostate cancer cells were obtained from American Type Culture Collection (Manassas, Va.) and were maintained in RPMI 1640 medium supplemented with 10% FBS, 1% antibiotic/antimycotic solution, 1.5 g/L sodium bicarbonate, and 10 mM HEPES, final pH of 7.4. Cells were seeded at 2.75×10^5 per 22-mm well in DME-F12 without phenol red, supplemented with 2.5% charcoal-stripped fetal bovine serum (FBS). After 24 h, cells were transfected using Lipofectamine and Plus reagents (Invitrogen) according to manufacturer's instructions. LNCaP and ZR-75 cells were transfected with 500 ng/well of either reporter plasmid, and 250 ng/well of pcDNA3.1-β-gal (Invitrogen) as the internal control. In addition, ZR-75 cells were transfected with 500 ng hAR. Twenty-four hours after treatment, cells were harvested by scraping with 200 μL/well of reporter lysis buffer. Lysates were centrifuged at 40,000 g and luciferase and β-galactosidase activity was assayed with 30 μL of the supernatant extract per sample using a Lumicount luminometer (PerkinElmer, Boston, Mass.). Luciferase activity was normalized to β-galactosidase activity for each transfection well.

AR [2] = biological target: T1, AR (Homo sapiens, UniProt P10275, T878A); type: cell-based; details: LNCaP, pPB, HPTE 10 μM
T1 construct: AR protein levels in whole cell lysates were determined by Western blot analysis; endogenous in cells; host or cells: LNCaP
T1 sequence (P10275 1-920 T878A): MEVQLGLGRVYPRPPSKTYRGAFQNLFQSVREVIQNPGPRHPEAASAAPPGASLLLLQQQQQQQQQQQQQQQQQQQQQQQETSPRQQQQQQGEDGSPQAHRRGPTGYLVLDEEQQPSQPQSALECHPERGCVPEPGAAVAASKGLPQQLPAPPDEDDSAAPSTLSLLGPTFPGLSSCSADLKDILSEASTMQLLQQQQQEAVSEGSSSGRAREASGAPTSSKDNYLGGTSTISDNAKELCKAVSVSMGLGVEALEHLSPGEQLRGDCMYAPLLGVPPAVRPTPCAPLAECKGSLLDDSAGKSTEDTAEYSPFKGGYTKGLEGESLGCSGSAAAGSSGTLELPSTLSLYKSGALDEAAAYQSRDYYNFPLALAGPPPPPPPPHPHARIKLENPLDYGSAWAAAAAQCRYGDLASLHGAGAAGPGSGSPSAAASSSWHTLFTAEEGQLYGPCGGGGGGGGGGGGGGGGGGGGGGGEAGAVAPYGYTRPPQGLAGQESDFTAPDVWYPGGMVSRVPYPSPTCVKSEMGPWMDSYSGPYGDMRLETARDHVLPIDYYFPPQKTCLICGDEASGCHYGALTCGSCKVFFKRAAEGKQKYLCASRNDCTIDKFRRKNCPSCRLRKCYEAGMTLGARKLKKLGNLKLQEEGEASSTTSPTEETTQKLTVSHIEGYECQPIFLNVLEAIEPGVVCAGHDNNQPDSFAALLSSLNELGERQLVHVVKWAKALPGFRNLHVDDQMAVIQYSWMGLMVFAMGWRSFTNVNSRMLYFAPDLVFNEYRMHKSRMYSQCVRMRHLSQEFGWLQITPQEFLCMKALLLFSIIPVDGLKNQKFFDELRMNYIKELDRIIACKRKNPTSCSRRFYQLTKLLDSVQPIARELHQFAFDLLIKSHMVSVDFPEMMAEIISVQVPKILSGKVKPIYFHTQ
Experimental: (§1) After 24 h, cells were transfected using Lipofectamine and Plus reagents (Invitrogen) according to manufacturer's instructions. LNCaP and ZR-75 cells were transfected with 500 ng/well of either reporter plasmid, and 250 ng/well of pcDNA3.1-β-gal (Invitrogen) as the internal control. In addition, ZR-75 cells were transfected with 500 ng hAR. Twenty-four hours after treatment, cells were harvested by scraping with 200 μL/well of reporter lysis buffer. Lysates were centrifuged at 40,000 g and luciferase and β-galactosidase activity was assayed with 30 μL of the supernatant extract per sample using a Lumicount luminometer (PerkinElmer, Boston, Mass.). Luciferase activity was normalized to β-galactosidase activity for each transfection well.
The transfected cells were then treated with hormone or AhR agonist alone or in combination and luciferase activity was determined as described in the above examples.

AR [3] = biological target: T1, AR; type: cell-based; details: LNCaP
Experimental: as §1
Next, LNCaP cells were transfected with pARR3 construct that contained three tandem (3) copies of the probasin androgen response element. The transfected cells were treated with hormone or AhR agonist alone or in combination and luciferase activity was determined as described in the above examples.

AR [4] = experiment: AR protein levels in LNCaP cells by Western blot; type: cell-based, human; details: 6 h
Experimental: Cells were harvested 6 h after treatment using 200 μL/22-mm well of ice cold lysis buffer (50 mM HEPES, pH 7.5, 500 mM NaCl, 10% (v/v) glycerol, 1% (v/v) Triton-X 100, 1.5 mM MgCl2, 1 mM EGTA) (McDougal et al., 2001). Lysates were centrifuged at 40,000 g, and supernatant was collected as extract. Whole cell extracts (50 μg/sample) were separated by electrophoresis on a tiered 7.5% (top)/12.5% (bottom) SDS-polyacrylamide gel and transferred to PVDF membrane (Bio-Rad, Richmond, Calif.). The membrane was blocked with 5% milk (m/v) in tris-buffered saline 0.05% Tween (TBST). Membranes were incubated with primary antibodies for AR (sc-7305), cyclin D1 (sc-718), or p27 (sc-528) (each from Santa Cruz Biotechnology, Santa Cruz, Calif.) at 1:1000 in 5% milk/TBST for 3 h. Membranes were washed twice in TBST. Horseradish peroxidase (HRP)-conjugated secondary antibodies were applied at 1:5000 in 5% milk/TBST for 1 h. After two TBST washes, PVDF-bounded antibodies were detected using a chemiluminescence kit (Western Lightning, PerkinElmer), ImageTek-H film (American X-Ray and Medical Supply, Rancho Cordova, Calif.) and an autoprocessor (Hope Macro-Med, Warminster, Pa.). Quantitation of the Western blot was performed using a Sharp JX-330 scanner (Sharp, Mahwah, N.J.) and Zero-D software (Scanalytics, Billerica, Mass.).

AhR = biological target: T2, AhR (Homo sapiens, UniProt P35869); experiment: AhR activation, pDRE3 luciferase transient transfection in LNCaP cells; type: cell-based
T2 construct: LNCaP cells were transfected with pDRE3, treated with various compounds and luciferase activity was determined; endogenous in cells; host or cells: LNCaP
T2 sequence (P35869 11-848): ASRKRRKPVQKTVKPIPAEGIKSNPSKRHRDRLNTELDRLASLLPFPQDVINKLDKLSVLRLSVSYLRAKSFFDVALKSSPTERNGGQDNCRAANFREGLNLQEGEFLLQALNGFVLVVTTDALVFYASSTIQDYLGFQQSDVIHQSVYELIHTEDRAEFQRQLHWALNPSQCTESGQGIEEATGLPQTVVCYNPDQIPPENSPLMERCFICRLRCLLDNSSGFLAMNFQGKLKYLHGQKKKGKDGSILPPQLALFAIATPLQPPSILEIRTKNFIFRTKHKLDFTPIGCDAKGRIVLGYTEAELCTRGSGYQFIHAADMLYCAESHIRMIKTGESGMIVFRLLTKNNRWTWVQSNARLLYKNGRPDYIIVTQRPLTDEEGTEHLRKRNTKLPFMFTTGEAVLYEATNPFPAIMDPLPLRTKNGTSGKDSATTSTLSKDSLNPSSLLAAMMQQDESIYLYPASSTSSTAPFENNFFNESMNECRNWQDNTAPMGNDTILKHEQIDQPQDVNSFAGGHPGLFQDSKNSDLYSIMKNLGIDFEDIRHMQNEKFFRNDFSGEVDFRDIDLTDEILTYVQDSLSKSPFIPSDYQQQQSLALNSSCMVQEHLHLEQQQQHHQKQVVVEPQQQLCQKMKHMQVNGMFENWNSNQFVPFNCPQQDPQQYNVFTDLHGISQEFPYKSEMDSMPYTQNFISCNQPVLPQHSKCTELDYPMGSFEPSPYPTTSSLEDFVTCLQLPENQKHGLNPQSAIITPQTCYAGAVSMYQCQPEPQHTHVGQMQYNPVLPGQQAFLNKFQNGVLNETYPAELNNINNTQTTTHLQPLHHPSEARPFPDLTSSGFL
Experimental: as §1
LNCaP cells were transfected with pDRE3, treated with various compounds and luciferase activity was determined as described in the above Examples.

LNCaP cells = type: cell-based, human
Experimental: After trypsinization and low-speed centrifugation, LNCaP cells were resuspended and counted using a Coulter cell counter (Beckman Coulter, Fullerton, Calif.). Cells were seeded at a density of 5×10^4/35-mm well using DME-F12 without phenol red, supplemented with 2.5% charcoal-stripped fetal bovine serum (FBS). Twenty-four hours after seeding, initial treatment was applied and then subsequently reapplied with fresh medium every two days until harvesting by trypsinization. Cells were counted after harvesting using a Coulter counter.

[5] = system: LNCaP prostate cancer cells; type: cell-based, human
Experimental: Cells were analyzed on a FACS Calibur (Becton Dickinson, San Jose, Calif.) flow cytometer, equipped with a 15 mW air-cooled argon laser, using CellQuest (Becton Dickinson) acquisition software. Propidium iodide (PI) fluorescence was collected through a 585/42-nm bandpass filter, and list mode data were acquired on a minimum of 12,000 single cells defined by a dot plot of PI-width versus PI-area. Data analysis was performed in ModFit LT (Verity Software House, Topsham, Me.) using PI-width versus PI-area to exclude cell aggregates.
The effects of TCDD on cell cycle progression was also determined in LNCaP cells treated with 1.0, 10 and 100 nM TCDD for 48 h followed by FACS analysis (Table 1).

C[C@]12CC[C@@H]3c4ccc(O)cc4CC[C@H]3[C@@H]1CC[C@@H]2O [E2, 17β-estradiol]
reporter gene activity ([1]; ZR-75 cells, pPB alone): did not activate

C[C@]12CC[C@@H]3c4ccc(O)cc4C[C@@H](CCCCCCCCC[S+]([O-])CCCC(F)(F)C(F)(F)F)[C@H]3[C@@H]1CC[C@@H]2O (stereo partly shown) [ICI 182780]
effect on DHT-induced luciferase activity (AR [2]; cotreatment with 10 nM DHT, MCDF 2 μM): only minimal inhibition | effect on E2-induced luciferase activity (AR [2]; cotreatment with 10 nM E2): significantly inhibited | effect on DHT-induced luciferase activity (AR [3]; pARR3, cotreatment with DHT): inhibited | effect on E2-induced luciferase activity (AR [3]; pARR3, cotreatment with E2): inhibited | AR levels in combination with DHT compared to DHT alone (AR [4]): not decreased | AR levels in combination with E2 compared to E2 alone (AR [4]): not decreased | AR protein levels, compound alone (AR [4]; DHT 10 nM, E2 10 nM, TCDD 10 nM, 6-MCDF 2 μM, HPTE 10 μM): increased

C[C@]12CCC(=O)C[C@@H]1CC[C@@H]1[C@@H]2CC[C@]2(C)[C@@H](O)CC[C@@H]12 [DHT, dihydrotestosterone]
luciferase activity induction compared to solvent control (DMSO) (AhR; pDRE3, 10 nM): did not significantly induce activity | effect on 6-MCDF-induced luciferase activity (AhR; pDRE3, hormone in combination with 6-MCDF): significantly inhibited | hormone-induced cell growth (LNCaP cells): not observed | Percent Distribution G0/G1 [5]: 73.400 ± 1.179% | Percent Distribution G2/M [5]: 9.433 ± 1.011% | Percent Distribution S [5]: 17.167 ± 0.296% | cell cycle distribution, difference between solvent (DMSO) and DHT [5]: minimal differences | reporter gene activity [1]: did not activate
